{"source": "PubChem BioAssay (NCI)", "test_in_all_cases": "inhibition of tumour cell growth, NCI panel, 48 h", "key": {"[1]": {"tested_on": "MALME-3M melanoma"}, "[2]": {"tested_on": "OVCAR-8 ovarian"}, "[3]": {"tested_on": "CCRF-CEM leukemia"}, "[4]": {"tested_on": "DMS 114 small cell lung"}, "[5]": {"tested_on": "KM12 colon"}, "[6]": {"tested_on": "OVCAR-3 ovarian"}, "[7]": {"tested_on": "OVCAR-4 ovarian"}, "[8]": {"tested_on": "SK-MEL-28 melanoma"}, "[9]": {"tested_on": "U251 CNS"}, "[10]": {"tested_on": "A549 NSCLC"}, "[11]": {"tested_on": "LXFL 529 NSCLC"}, "[12]": {"tested_on": "K-562 leukemia"}, "[13]": {"tested_on": "M14 melanoma"}, "[14]": {"tested_on": "SK-MEL-2 melanoma"}, "[15]": {"tested_on": "SW-620 colon"}, "[16]": {"tested_on": "UACC-62 melanoma"}, "[17]": {"tested_on": "SF-295 CNS"}, "[18]": {"tested_on": "SF-268 CNS"}, "[19]": {"tested_on": "LOX IMVI melanoma"}, "[20]": {"tested_on": "TK-10 renal"}, "[21]": {"tested_on": "HCT-15 colon"}, "[22]": {"tested_on": "HT29 colon"}, "[23]": {"tested_on": "UACC-257 melanoma"}, "[24]": {"tested_on": "RPMI-8226 leukemia"}, "[25]": {"tested_on": "HOP-62 NSCLC"}, "[26]": {"tested_on": "HL-60(TB) leukemia"}, "[27]": {"tested_on": "SNB-78 CNS"}, "[28]": {"tested_on": "RXF 393 renal"}, "[29]": {"tested_on": "OVCAR-5 ovarian"}, "[30]": {"tested_on": "SN12C renal"}, "[31]": {"tested_on": "COLO 205 colon"}, "[32]": {"tested_on": "NCI-H460 lung"}, "[33]": {"tested_on": "HOP-92 NSCLC"}, "[34]": {"tested_on": "XF 498 CNS"}, "[35]": {"tested_on": "EKVX NSCLC"}, "[36]": {"tested_on": "DMS 273 small cell lung"}, "[37]": {"tested_on": "786-0 renal"}, "[38]": {"tested_on": "NCI-H23 lung"}, "[39]": {"tested_on": "ACHN renal"}, "[40]": {"tested_on": "MOLT-4 leukemia"}, "[41]": {"tested_on": "IGROV1 ovarian"}, "[42]": {"tested_on": "SK-MEL-5 melanoma"}, "[43]": {"tested_on": "KM20L2 colon"}, "[44]": {"tested_on": "M19-MEL melanoma"}, "[45]": {"tested_on": "HCC-2998 colon"}, "[46]": {"tested_on": "SNB-75 CNS"}, "[47]": {"tested_on": "SK-OV-3 ovarian"}, "[48]": {"tested_on": "DLD-1 colon"}, "[49]": {"tested_on": "A498 renal"}, "[50]": {"tested_on": "UO-31 renal"}, "[51]": {"tested_on": "NCI-H522 lung"}, "[52]": {"tested_on": "CAKI-1 renal"}, "[53]": {"tested_on": "SNB-19 CNS"}}, "note": "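Grown in 96-well plates, cells were treated for 48 hours with each compound at five concentrations. Insufficient inhibition: endpoint recorded as highest concentration tested. TGI: concentration producing complete growth inhibition.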"}
{"smiles": "CC(=O)O[C@H]1CCC2[C@@H]3CCC4C(=O)c5oncc5C[C@]4(C)C3CC[C@@]21C", "note": "(stereo partly specified)", "values": [{"measurement": "TGI", "setting": "[1]", "value": "> 100", "unit": "µM"}, {"measurement": "TGI", "setting": "[2]", "value": "> 100", "unit": "µM"}, {"measurement": "TGI", "setting": "[3]", "value": "> 100", "unit": "µM"}, {"measurement": "TGI", "setting": "[4]", "value": "> 100", "unit": "µM"}, {"measurement": "TGI", "setting": "[5]", "value": "> 100", "unit": "µM"}, {"measurement": "TGI", "setting": "[6]", "value": "> 100", "unit": "µM"}, {"measurement": "TGI", "setting": "[7]", "value": "> 100", "unit": "µM"}, {"measurement": "TGI", "setting": "[8]", "value": "> 100", "unit": "µM"}, {"measurement": "TGI", "setting": "[9]", "value": "> 100", "unit": "µM"}, {"measurement": "TGI", "setting": "[10]", "value": "> 100", "unit": "µM"}, {"measurement": "TGI", "setting": "[11]", "value": "> 100", "unit": "µM"}, {"measurement": "TGI", "setting": "[12]", "value": "> 100", "unit": "µM"}, {"measurement": "TGI", "setting": "[13]", "value": "> 100", "unit": "µM"}, {"measurement": "TGI", "setting": "[14]", "value": "> 100", "unit": "µM"}, {"measurement": "TGI", "setting": "[15]", "value": "> 100", "unit": "µM"}, {"measurement": "TGI", "setting": "[16]", "value": "> 100", "unit": "µM"}, {"measurement": "TGI", "setting": "[17]", "value": "> 100", "unit": "µM"}, {"measurement": "TGI", "setting": "[18]", "value": "> 100", "unit": "µM"}, {"measurement": "TGI", "setting": "[19]", "value": "> 100", "unit": "µM"}, {"measurement": "TGI", "setting": "[20]", "value": "> 100", "unit": "µM"}, {"measurement": "TGI", "setting": "[21]", "value": "> 100", "unit": "µM"}, {"measurement": "TGI", "setting": "[22]", "value": "> 100", "unit": "µM"}, {"measurement": "TGI", "setting": "[23]", "value": "> 100", "unit": "µM"}, {"measurement": "TGI", "setting": "[24]", "value": "> 100", "unit": "µM"}, {"measurement": "TGI", "setting": "[25]", "value": "> 100", "unit": "µM"}, {"measurement": "TGI", "setting": "[26]", "value": "> 100", "unit": "µM"}, {"measurement": "TGI", "setting": "[27]", "value": "> 100", "unit": "µM"}, {"measurement": "TGI", "setting": "[28]", "value": "> 100", "unit": "µM"}, {"measurement": "TGI", "setting": "[29]", "value": "> 100", "unit": "µM"}, {"measurement": "TGI", "setting": "[30]", "value": "> 100", "unit": "µM"}, {"measurement": "TGI", "setting": "[31]", "value": "> 100", "unit": "µM"}, {"measurement": "TGI", "setting": "[32]", "value": "> 100", "unit": "µM"}, {"measurement": "TGI", "setting": "[33]", "value": "> 100", "unit": "µM"}, {"measurement": "TGI", "setting": "[34]", "value": "> 100", "unit": "µM"}, {"measurement": "TGI", "setting": "[35]", "value": "> 100", "unit": "µM"}, {"measurement": "TGI", "setting": "[36]", "value": "> 100", "unit": "µM"}, {"measurement": "TGI", "setting": "[37]", "value": "> 100", "unit": "µM"}, {"measurement": "TGI", "setting": "[38]", "value": "> 100", "unit": "µM"}, {"measurement": "TGI", "setting": "[39]", "value": "> 100", "unit": "µM"}, {"measurement": "TGI", "setting": "[40]", "value": "> 100", "unit": "µM"}, {"measurement": "TGI", "setting": "[41]", "value": "> 100", "unit": "µM"}, {"measurement": "TGI", "setting": "[42]", "value": "> 100", "unit": "µM"}, {"measurement": "TGI", "setting": "[43]", "value": "> 100", "unit": "µM"}, {"measurement": "TGI", "setting": "[44]", "value": "> 100", "unit": "µM"}, {"measurement": "TGI", "setting": "[45]", "value": "> 100", "unit": "µM"}, {"measurement": "TGI", "setting": "[46]", "value": "> 100", "unit": "µM"}, {"measurement": "TGI", "setting": "[47]", "value": "> 100", "unit": "µM"}, {"measurement": "TGI", "setting": "[48]", "value": "> 100", "unit": "µM"}, {"measurement": "TGI", "setting": "[49]", "value": "> 100", "unit": "µM"}]}
{"smiles": "COc1ccc(OC)c(CCc2cc(OC)c(OC)cc2C)c1", "values": [{"measurement": "TGI", "setting": "[1]", "value": "> 100", "unit": "µM"}, {"measurement": "TGI", "setting": "[2]", "value": "> 100", "unit": "µM"}, {"measurement": "TGI", "setting": "[3]", "value": "> 100", "unit": "µM"}, {"measurement": "TGI", "setting": "[4]", "value": 72.9, "unit": "µM"}, {"measurement": "TGI", "setting": "[50]", "value": "> 100", "unit": "µM"}, {"measurement": "TGI", "setting": "[5]", "value": "> 100", "unit": "µM"}, {"measurement": "TGI", "setting": "[6]", "value": "> 100", "unit": "µM"}, {"measurement": "TGI", "setting": "[7]", "value": "> 100", "unit": "µM"}, {"measurement": "TGI", "setting": "[8]", "value": "> 100", "unit": "µM"}, {"measurement": "TGI", "setting": "[9]", "value": "> 100", "unit": "µM"}, {"measurement": "TGI", "setting": "[10]", "value": "> 100", "unit": "µM"}, {"measurement": "TGI", "setting": "[11]", "value": "> 100", "unit": "µM"}, {"measurement": "TGI", "setting": "[12]", "value": "> 100", "unit": "µM"}, {"measurement": "TGI", "setting": "[13]", "value": "> 100", "unit": "µM"}, {"measurement": "TGI", "setting": "[14]", "value": "> 100", "unit": "µM"}, {"measurement": "TGI", "setting": "[15]", "value": "> 100", "unit": "µM"}, {"measurement": "TGI", "setting": "[16]", "value": "> 100", "unit": "µM"}, {"measurement": "TGI", "setting": "[17]", "value": 47.2, "unit": "µM"}, {"measurement": "TGI", "setting": "[18]", "value": "> 100", "unit": "µM"}, {"measurement": "TGI", "setting": "[20]", "value": "> 100", "unit": "µM"}, {"measurement": "TGI", "setting": "[22]", "value": "> 100", "unit": "µM"}, {"measurement": "TGI", "setting": "[23]", "value": "> 100", "unit": "µM"}, {"measurement": "TGI", "setting": "[24]", "value": 90.1, "unit": "µM"}, {"measurement": "TGI", "setting": "[25]", "value": "> 100", "unit": "µM"}, {"measurement": "TGI", "setting": "[51]", "value": 20.4, "unit": "µM"}, {"measurement": "TGI", "setting": "[27]", "value": 92.7, "unit": "µM"}, {"measurement": "TGI", "setting": "[29]", "value": "> 100", "unit": "µM"}, {"measurement": "TGI", "setting": "[30]", "value": "> 100", "unit": "µM"}, {"measurement": "TGI", "setting": "[31]", "value": "> 100", "unit": "µM"}, {"measurement": "TGI", "setting": "[32]", "value": "> 100", "unit": "µM"}, {"measurement": "TGI", "setting": "[52]", "value": "> 100", "unit": "µM"}, {"measurement": "TGI", "setting": "[34]", "value": "> 100", "unit": "µM"}, {"measurement": "TGI", "setting": "[35]", "value": "> 100", "unit": "µM"}, {"measurement": "TGI", "setting": "[37]", "value": "> 100", "unit": "µM"}, {"measurement": "TGI", "setting": "[38]", "value": "> 100", "unit": "µM"}, {"measurement": "TGI", "setting": "[53]", "value": "> 100", "unit": "µM"}, {"measurement": "TGI", "setting": "[39]", "value": "> 100", "unit": "µM"}, {"measurement": "TGI", "setting": "[40]", "value": "> 100", "unit": "µM"}, {"measurement": "TGI", "setting": "[41]", "value": "> 100", "unit": "µM"}, {"measurement": "TGI", "setting": "[42]", "value": "> 100", "unit": "µM"}, {"measurement": "TGI", "setting": "[43]", "value": "> 100", "unit": "µM"}, {"measurement": "TGI", "setting": "[44]", "value": "> 100", "unit": "µM"}, {"measurement": "TGI", "setting": "[45]", "value": "> 100", "unit": "µM"}, {"measurement": "TGI", "setting": "[46]", "value": "> 100", "unit": "µM"}, {"measurement": "TGI", "setting": "[47]", "value": 98.4, "unit": "µM"}, {"measurement": "TGI", "setting": "[48]", "value": "> 100", "unit": "µM"}, {"measurement": "TGI", "setting": "[49]", "value": "> 100", "unit": "µM"}]}
